This assay has as its target Epidermal growth factor receptor (Homo sapiens, UniProt P00533). Put plainly: Inhibition of EGFR L858R mutant (unknown origin) using polyE4Y1 as substrate measured after 60 mins.

Here are results for one compound from BindingDB's records for doi:10.1016/j.bmcl.2019.04.009 (Wannan Medical College, 2019).

Chain of Epidermal growth factor receptor (P00533 25-1210 L858R limits assumed): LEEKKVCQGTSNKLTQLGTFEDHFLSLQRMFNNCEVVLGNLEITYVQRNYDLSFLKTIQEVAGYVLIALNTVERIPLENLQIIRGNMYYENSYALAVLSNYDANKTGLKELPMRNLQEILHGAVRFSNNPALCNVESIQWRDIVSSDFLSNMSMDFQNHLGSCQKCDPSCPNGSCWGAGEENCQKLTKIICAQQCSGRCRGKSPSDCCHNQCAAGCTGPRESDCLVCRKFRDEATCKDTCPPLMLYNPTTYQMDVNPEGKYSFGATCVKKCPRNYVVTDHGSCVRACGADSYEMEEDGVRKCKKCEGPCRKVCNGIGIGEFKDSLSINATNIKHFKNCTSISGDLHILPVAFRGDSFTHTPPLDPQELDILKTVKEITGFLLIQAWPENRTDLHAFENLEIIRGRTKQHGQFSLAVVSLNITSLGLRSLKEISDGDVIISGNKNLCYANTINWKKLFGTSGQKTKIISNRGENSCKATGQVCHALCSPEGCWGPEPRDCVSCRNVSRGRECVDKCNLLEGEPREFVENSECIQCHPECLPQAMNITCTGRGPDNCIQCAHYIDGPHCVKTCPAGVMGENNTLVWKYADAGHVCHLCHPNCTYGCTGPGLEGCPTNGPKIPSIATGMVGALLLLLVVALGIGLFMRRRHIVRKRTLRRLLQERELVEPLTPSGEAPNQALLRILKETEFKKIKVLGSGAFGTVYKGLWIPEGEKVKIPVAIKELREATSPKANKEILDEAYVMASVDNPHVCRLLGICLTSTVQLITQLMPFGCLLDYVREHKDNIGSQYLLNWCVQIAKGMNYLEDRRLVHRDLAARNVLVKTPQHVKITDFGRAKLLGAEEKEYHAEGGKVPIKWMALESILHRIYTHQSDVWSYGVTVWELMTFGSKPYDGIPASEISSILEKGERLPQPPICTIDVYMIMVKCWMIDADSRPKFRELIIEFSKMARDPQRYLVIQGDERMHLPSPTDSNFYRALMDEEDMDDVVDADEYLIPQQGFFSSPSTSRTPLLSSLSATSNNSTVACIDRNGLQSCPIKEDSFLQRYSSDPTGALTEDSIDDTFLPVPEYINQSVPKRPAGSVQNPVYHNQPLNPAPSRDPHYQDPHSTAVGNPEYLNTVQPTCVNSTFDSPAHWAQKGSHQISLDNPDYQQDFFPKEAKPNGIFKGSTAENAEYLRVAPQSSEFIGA

By IC50 is commonly meant the concentration that inhibits the measured activity by half. `C[C@H]1[C@H](C)CC[C@]2(C(=O)O)CC[C@]3(COC(=O)/C=C/c4ccc(O)cc4)C(=CC[C@@H]4[C@@]5(C)CC[C@H](O)C(C)(C)[C@@H]5CC[C@]43C)[C@H]12` [27-trans-p-coumaroyloxyursolic acid] displayed a 50% inhibitory concentration (IC50) of 56 nM.
